Data taken from ChEMBL document CHEMBL1201862, “PubChem BioAssay data set” (2004).
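These data come from cells grown in 96-well plates and exposed to compound for 48 hours at five concentrations. GI50: concentration for 50% inhibition of growth.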 Active and inactive are the calls of the source. Rule as the data show it: active = GI50 up to about 1.1 µM and inactive = higher.

Tests used:
Experiment in all cases: NCI anticancer screen, dose series, 48 h
RXF 393 = tested on: RXF 393
ACHN = tested on: ACHN
UACC-257 = tested on: UACC-257
UACC-62 = tested on: UACC-62
MOLT-4 = tested on: MOLT-4
HL-60 = tested on: HL-60
SF-539 = tested on: SF-539
PC-3 = tested on: PC-3
NCI-H23 = tested on: NCI-H23
MDA-N = tested on: MDA-N
COLO 205 = tested on: COLO 205
A549 = tested on: A549
EKVX = tested on: EKVX
MDA-MB-231 = tested on: MDA-MB-231
SN12C = tested on: SN12C
HOP-62 = tested on: HOP-62
HCC 2998 = tested on: HCC 2998
HCT-15 = tested on: HCT-15
LOX IMVI = tested on: LOX IMVI
M14 = tested on: M14
OVCAR-3 = tested on: OVCAR-3
T47D = tested on: T47D
SNB-19 = tested on: SNB-19
SK-MEL-5 = tested on: SK-MEL-5
NCI-H460 = tested on: NCI-H460
OVCAR-4 = tested on: OVCAR-4
NCI-H226 = tested on: NCI-H226
HT-29 = tested on: HT-29
SF-295 = tested on: SF-295
MCF7 = tested on: MCF7
TK-10 = tested on: TK-10
SW-620 = tested on: SW-620
DU-145 = tested on: DU-145
U-251 = tested on: U-251
SF-268 = tested on: SF-268
RPMI-8226 = tested on: RPMI-8226
KM12 = tested on: KM12
NCI/ADR-RES = tested on: NCI/ADR-RES
K562 = tested on: K562
MDA-MB-435 = tested on: MDA-MB-435
786-0 = tested on: 786-0
CCRF-CEM = tested on: CCRF-CEM
SNB-75 = tested on: SNB-75
Hs-578T = tested on: Hs-578T
HCT-116 = tested on: HCT-116
IGROV-1 = tested on: IGROV-1
SK-MEL-28 = tested on: SK-MEL-28
SK-OV-3 = tested on: SK-OV-3
HOP-92 = tested on: HOP-92
OVCAR-8 = tested on: OVCAR-8
UO-31 = tested on: UO-31
Malme-3M = tested on: Malme-3M
OVCAR-5 = tested on: OVCAR-5
A498 = tested on: A498
NCI-H522 = tested on: NCI-H522

With `CC(=O)/N=S(/NC(=O)c1ccc(C)cc1)C(Cl)(Cl)Cl` (stereo not drawn) the GI50 (RXF 393) was 44.6 µM (inactive), the GI50 (ACHN) was 41 µM (inactive) and the GI50 (UACC-257) was 44 µM (inactive). The GI50 (UACC-62) was 99.3 µM (inactive), the GI50 (MOLT-4) was 25.1 µM (inactive) and the GI50 (HL-60) was 0.226 µM (active). The GI50 (SF-539) was 77.1 µM (inactive), the GI50 (PC-3) was > 100 µM (inactive) and the GI50 (NCI-H23) was 24.1 µM (inactive). For the same compound, the GI50 (MDA-N) was 55.6 µM (inactive), the GI50 (COLO 205) was 19.8 µM (inactive) and the GI50 (A549) was > 100 µM (inactive). For the same compound, the GI50 (EKVX) was 44.5 µM (inactive), the GI50 (MDA-MB-231) was 26.2 µM (inactive) and the GI50 (SN12C) was 37.9 µM (inactive). The GI50 (HOP-62) was 56.4 µM (inactive), the GI50 (HCC 2998) was 15.1 µM (inactive) and the GI50 (HCT-15) was 42.8 µM. For the same compound, the GI50 (LOX IMVI) was 29.7 µM (inactive), the GI50 (M14) was 15.7 µM (inactive) and the GI50 (OVCAR-3) was 20.9 µM (inactive). The GI50 (T47D) was 34.3 µM (inactive), the GI50 (SNB-19) was 94.8 µM (inactive) and the GI50 (SK-MEL-5) was 33.3 µM (inactive). The GI50 (NCI-H460) was 38.5 µM (inactive), the GI50 (OVCAR-4) was 31.2 µM (inactive) and the GI50 (NCI-H226) was > 100 µM (inactive). The GI50 (HT-29) was 23.6 µM (inactive), the GI50 (SF-295) was > 100 µM (inactive) and the GI50 (MCF7) was 51.9 µM (inactive). The GI50 (TK-10) was > 100 µM (inactive), the GI50 (SW-620) was 15.8 µM (inactive) and the GI50 (DU-145) was > 100 µM (inactive). The GI50 (U-251) was 22 µM (inactive), the GI50 (SF-268) was 97.1 µM (inactive) and the GI50 (RPMI-8226) was 74.3 µM (inactive). The GI50 (KM12) was > 100 µM (inactive), the GI50 (NCI/ADR-RES) was 20.4 µM (inactive) and the GI50 (K562) was 23.9 µM (inactive). For the same compound, the GI50 (MDA-MB-435) was 19.1 µM (inactive), the GI50 (786-0) was 18 µM (inactive) and the GI50 (CCRF-CEM) was 18.6 µM (inactive). For the same compound, the GI50 (SNB-75) was 45.3 µM (inactive), the GI50 (Hs-578T) was 59.3 µM (inactive) and the GI50 (HCT-116) was 31 µM (inactive). For the same compound, the GI50 (IGROV-1) was 38.6 µM (inactive), the GI50 (SK-MEL-28) was 46.7 µM (inactive) and the GI50 (SK-OV-3) was 70 µM (inactive). The GI50 (HOP-92) was > 100 µM (inactive), the GI50 (OVCAR-8) was 15.6 µM (inactive) and the GI50 (UO-31) was 26.1 µM (inactive). The GI50 (Malme-3M) was 29.6 µM (inactive) and the GI50 (OVCAR-5) was 36.2 µM (inactive).

`O=C1C=CC2(C=C1)CCNC1=C2C(=O)c2[nH]cnc2C1=O` was tested, and the GI50 (SNB-19) was 13.9 µM (inactive), the GI50 (IGROV-1) was 15.2 µM (inactive) and the GI50 (Malme-3M) was 2.26 µM (inactive).

`O=C1Cc2c([nH]c3ccc(Cl)cc23)-c2ccccc2N1` was tested, and the GI50 (ACHN) was > 100 µM (inactive), the GI50 (UACC-62) was 74.6 µM (inactive) and the GI50 (NCI-H23) was > 100 µM (inactive). The GI50 (MDA-N) was > 100 µM (inactive), the GI50 (COLO 205) was > 100 µM (inactive) and the GI50 (A549) was > 100 µM (inactive). For the same compound, the GI50 (MDA-MB-231) was > 100 µM (inactive), the GI50 (SN12C) was > 100 µM (inactive) and the GI50 (LOX IMVI) was 2.13 µM (inactive). The GI50 (M14) was > 100 µM (inactive), the GI50 (T47D) was > 100 µM (inactive) and the GI50 (SNB-19) was > 100 µM (inactive). For the same compound, the GI50 (SK-MEL-5) was > 100 µM (inactive), the GI50 (NCI-H460) was > 100 µM (inactive) and the GI50 (OVCAR-4) was > 100 µM (inactive). For the same compound, the GI50 (NCI-H226) was > 100 µM (inactive), the GI50 (SF-295) was > 100 µM (inactive) and the GI50 (MCF7) was > 100 µM (inactive). For the same compound, the GI50 (TK-10) was > 100 µM (inactive), the GI50 (U-251) was > 100 µM (inactive) and the GI50 (SF-268) was > 100 µM (inactive). The GI50 (RPMI-8226) was > 100 µM (inactive), the GI50 (NCI/ADR-RES) was > 100 µM (inactive) and the GI50 (MDA-MB-435) was > 100 µM (inactive). The GI50 (A498) was > 100 µM (inactive), the GI50 (786-0) was > 100 µM (inactive) and the GI50 (SNB-75) was > 100 µM (inactive). For the same compound, the GI50 (Hs-578T) was > 100 µM (inactive), the GI50 (HCT-116) was 3.17 µM (inactive) and the GI50 (IGROV-1) was > 100 µM (inactive). The GI50 (SK-MEL-28) was > 100 µM (inactive), the GI50 (SK-OV-3) was > 100 µM (inactive) and the GI50 (NCI-H522) was > 100 µM (inactive). The GI50 (HOP-92) was > 100 µM (inactive), the GI50 (OVCAR-8) was > 100 µM (inactive) and the GI50 (UO-31) was > 100 µM (inactive). For the same compound, the GI50 (Malme-3M) was > 100 µM (inactive).
